Source: patent publication US8871900B2, “Fibroblast growth factor (FGF) analogs and uses thereof” (University of Rochester, priority 2008, dated 2014)
Peptide text beside a SMILES is read from it.

How the values were obtained:
[1] = Toxicity of FGF-P (LD50/14 experiments); format: in vivo, mouse (Balb/c)
Procedure: Standard LD50/14 experiments have been performed. Up to 400 mg/kg of FGF-P was injected into Balb/c mice. No obvious signs of illness were observed. […] Thus, even the maximum NOAEL (no observed adverse effect level) could not be found. […] This observation is not surprising since similar observations have been made previously with human FGF-2 in mice (9-14) Likewise, it has been shown that in various disease states the level of FGF in humans is commonly 100 times the normal baseline.
A useful mitigator can be effective even given 8-24 hours IR exposure because of the time required for distribution. Therefore, FGF-P given at 8 hour after 7.1 Gy IR was tested.

[2] = Plasma GI endocrine and exocrine markers after sub-TBI; format: in vivo, mouse (Balb/c); details: 10.5 Gy sub-TBI, 3.5 days
Source text: The gastrointestinal tract facilitates nutritional absorption and digestion through endocrine organs and exocrine function. Measurements of these functions in Balb/c mice with AGS, with and without FGF-P treatment have been made. Regarding endocrine function, critical proteins produced by epithelial cells lining the small intestine and/or the pancreas are: 1) secretin, which stimulates secretion of a bicarbonate-rich fluid from the pancreas and liver; and 2) insulin, produced by pancreatic β cells, which controls the level of blood glucose. Regarding exocrine function, a major digestive protein, amylase was measured. Amylase is secreted by epithelial cells along the GI tract, including the pancreas.
For secretin, the amino acid sequence in mice is ([…], SEQ ID NO: 4), which has a one amino acid change (M vs. T) at position 5. The kit for human secretin (Peninsula Laboratories, cat #S-1229) has been tested and it recognizes the mouse form. A mouse insulin kit is available (Linco Inc. Cat #EZRMI-13 K). The EnzChek Ultr Amylase Assay kit (Molecular Probes, Cat #E33651.3) can be used for all species, since it measures for the enzymatic product. Blood glucose level can be measured with a commercial kit from Sigma (Cat #GAG0-20 and GAHK-20) and is based on enzymatic activity, which is also universal to all species. Using these kits, the alterations in the plasma concentrations of the GI-derived proteins and peptides in mice that had been exposed to 10.5 Gy sub-TBI and, thereafter, received vehicle alone or FGF-P ([…] im) for 3 doses (10 min, 1 day, and 2 days post-IR) were measured. The samples were collected 3.5 days after irradiation.

[3] = tested on: epithelial cells (SW480, a cell line from colon); experiment: Growth bioassay, epithelial cells; format: cell-based; details: FGF-P added to culture media
Procedure: (§1) These clusters can be counted thus allowing for measurement of relative binding coefficients. To test the feasibility of binding coefficient measurement, competition experiments were performed. Free FGF-P (30 ug/ml) was added to cells for 20 min and then the biotin-FGF-P (1 μg/mL) was added. One hour later, the streptavidin-FITC was added and analyzed by flow cytometry. […] In a third test, a bioassay was performed. FGF-P was added to culture media of two types of cells: endothelial cells (adult bovine aorta endothelium) and epithelial cells (SW480, a cell line from colon).
(§2) Three preliminary experiments were carried out using FGF-P in vitro to confirm its activity. First, the biotin conjugated FGF-P was used as a tool to examine cell surface binding. AsPC-1 pancreatic cancer epithelial cells are known to have high levels of FGFR and were used for this study. ASPC-1 cells were incubated with 1 μg/ml of biotin-FGF-P and then labeled with streptavidin-FITC. The cells were then analyzed using an imaging flow cytometer (Amnis Imagestream). This device can image each cell as it passes through the laser, and it can then sort cells according to both staining and morphological characteristics. […] These clusters were counted, allowing for measurement of relative binding coefficients. […] One hour later, streptavidin-FITC was added and analyzed by flow cytometry. […]

[4] = tested on: BM cells; experiment: BM colony formation in MethoCult 3 D culture; format: cell-based, mouse (Balb/c)
Source text: Survival of ARS depends on rapid reconstitution of hematopoiesis after IR-induced myelosuppression. […] However, the timing and mechanism of effect on BM stem cells is unknown. Also unclear are the number of FGFRs on hematopoietic stem cells (HSCs) and their role in reconstitution after IR. […] To characterize the effects of FGF-P on BM, the study approach was to obtain fresh BM (including both HSCs and MSCs) from Balb/c mice, and culture it under varying conditions (3 D culture or 2 D round-bottom well) in triplicate for 1-3 weeks. The BM cells were stimulated with FGF-P at different doses (as test) or with EPO, TPO, GM-CSF or native FGF2 (as a positive control). The cultures were examined using several methods including colony count, photography, CyQUANT® assay and ^3H-TdR incorporation.

[5] = tested on: endothelial cells (adult bovine aorta endothelium); experiment: Growth bioassay, endothelial cells; format: cell-based; details: FGF-P added to culture media
Procedure: as §1, §2

[6] = FGF-P (2 mg/ml im) 3 doses, P<0.05

CC(C)C[C@H](NC(=O)[C@H](C)NC(=O)[C@@H](NC(=O)[C@H](Cc1ccc(O)cc1)NC(=O)[C@H](Cc1c[nH]c2ccccc12)NC(=O)[C@H](CO)NC(=O)[C@H](CO)NC(=O)[C@H](Cc1ccc(O)cc1)NC(=O)[C@H](CCCCN)NC(=O)[C@H](CCCNC(=N)N)NC(=O)[C@H](CO)NC(=O)[C@H](CCCNC(=N)N)NC(=O)[C@H](Cc1ccc(O)cc1)NC(=O)[C@@H](N)CS)C(C)C)C(=O)N[C@@H](CCCCN)C(=O)N[C@@H](CCCNC(=N)N)C(=O)N[C@@H](CS)C(=O)O [FGF-P, CYRSRKYSSWYVALKRC] (H-CYRSRKYSSWYVALKRC-OH; N-terminus and C-terminus assumed)
body weight ([1]; Balb/c mice, up to 400 mg/kg): body weight did not decrease
dose tolerated well without any signs of sickness ([1]; mice): up to 4 gram/kg
NOAEL at 14 days ([1]; mouse, in vivo, Balb/c mice, LD50/14 experiments, read-out: injected dose with no obvious signs of illness (maximum NOAEL could not be found)): ≤ 400 mg/kg
plasma amylase level [2, 6]: restored it to normal levels
plasma insulin levels [2, 6]: restored to near normal
plasma level of secretin [2, 6]: reversed this effect
blood glucose ([2]; FGF-P (im) 3 doses): better preserved
growth of epithelium [3]: stimulated the growth of both endothelium and epithelium
colony formation of BM cells [4]: enhanced colony formation of BM cells in a dose dependent manner
growth of endothelium [5]: stimulated the growth of both endothelium and epithelium
